Assay results reported in ChEMBL document CHEMBL1145259, “Arylacetamide kappa opioid receptor agonists with reduced cytochrome P450 2D6 inhibitory activity” (Bioorg Med Chem Lett, 2005).
pIC50, pKi: −log10 of the molar value.

How the values were obtained:
CYP2D6 = CYP2D6 (Homo sapiens, UniProt P10635); test: Inhibition of cytochrome P450 2D6 activity was measured by the inhibition of HAMC production at the concentration of 10 uM; assay type: ADME
Cytochrome P450 2D6 = Cytochrome P450 2D6 (Homo sapiens, UniProt P10635); test: Inhibition of cytochrome P450 2D6 was determined using MAMC (7-methoxy-4-aminomethyl-coumarin) as substrate; assay type: ADME
[1] = target: T1, Delta-type opioid receptor (Homo sapiens, UniProt P41143); test: Inhibitory constant against human Opioid receptor delta 1 using [3H]diprenorphine as radio ligand
Mu-type opioid receptor [2] = target: T2, Mu-type opioid receptor (Homo sapiens, UniProt P35372); test: Inhibitory constant against human Opioid receptor mu 1 using [3H]diprenorphine as radio ligand
Mu-type opioid receptor [3] = target: T2, Mu-type opioid receptor; test: Percent inhibition against human Opioid receptor mu 1 using [3H]diprenorphine as radio ligand; design: concentration or dose not given beside the values; settings: concentration not given here
[4] = target: T1, Delta-type opioid receptor; test: Percent inhibition against human Opioid receptor delta 1 using [3H]diprenorphine as radio ligand; settings: concentration not given here
[5] = target: T1, Delta-type opioid receptor; test: Percent inhibition constant against human Opioid receptor delta 1 using [3H]diprenorphine as radio ligand; settings: concentration not given here

T1 sequence (P41143 whole entry): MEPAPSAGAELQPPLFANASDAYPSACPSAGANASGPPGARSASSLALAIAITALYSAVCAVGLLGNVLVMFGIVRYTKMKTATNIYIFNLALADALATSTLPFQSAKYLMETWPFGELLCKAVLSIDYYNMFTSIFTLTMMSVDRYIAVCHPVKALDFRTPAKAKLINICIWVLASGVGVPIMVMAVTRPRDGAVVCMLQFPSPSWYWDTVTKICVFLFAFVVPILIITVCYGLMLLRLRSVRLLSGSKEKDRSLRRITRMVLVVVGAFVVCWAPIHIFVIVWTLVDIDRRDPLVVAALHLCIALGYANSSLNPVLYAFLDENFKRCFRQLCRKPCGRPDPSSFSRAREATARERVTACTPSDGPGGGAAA
CYP2D6, sequence (P10635 whole entry): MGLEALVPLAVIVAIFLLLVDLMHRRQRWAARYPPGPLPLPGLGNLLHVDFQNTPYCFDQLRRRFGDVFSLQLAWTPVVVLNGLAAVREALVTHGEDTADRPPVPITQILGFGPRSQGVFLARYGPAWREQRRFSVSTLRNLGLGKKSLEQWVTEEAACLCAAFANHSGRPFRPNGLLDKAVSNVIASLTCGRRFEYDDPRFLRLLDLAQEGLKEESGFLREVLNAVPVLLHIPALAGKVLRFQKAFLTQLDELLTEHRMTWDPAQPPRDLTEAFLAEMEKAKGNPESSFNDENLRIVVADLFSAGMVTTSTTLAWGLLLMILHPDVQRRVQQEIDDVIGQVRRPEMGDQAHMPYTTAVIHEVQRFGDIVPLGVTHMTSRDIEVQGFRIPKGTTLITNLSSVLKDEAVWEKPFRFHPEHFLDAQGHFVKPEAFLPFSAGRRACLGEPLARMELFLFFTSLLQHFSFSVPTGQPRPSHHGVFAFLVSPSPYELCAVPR
Cytochrome P450 2D6, sequence (P10635 whole entry): as above
T2 sequence (P35372 whole entry): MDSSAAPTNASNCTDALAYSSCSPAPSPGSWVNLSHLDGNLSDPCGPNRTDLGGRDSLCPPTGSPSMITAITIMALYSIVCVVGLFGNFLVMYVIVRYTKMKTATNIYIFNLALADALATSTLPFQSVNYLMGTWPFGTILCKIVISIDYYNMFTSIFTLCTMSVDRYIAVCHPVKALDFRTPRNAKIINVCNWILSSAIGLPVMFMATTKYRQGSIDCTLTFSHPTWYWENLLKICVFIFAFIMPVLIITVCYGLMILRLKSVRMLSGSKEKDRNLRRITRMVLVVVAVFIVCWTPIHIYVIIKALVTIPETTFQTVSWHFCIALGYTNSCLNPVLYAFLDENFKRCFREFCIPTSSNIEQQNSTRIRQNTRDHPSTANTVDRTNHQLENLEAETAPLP

SMILES: CN(C(=O)Cc1ccc(CCCNS(C)(=O)=O)cc1)[C@H](CN1CC[C@H](O)C1)c1ccccc1
- inhibition at 10 µM (CYP2D6): 46%

SMILES: Cc1ccc(S(=O)(=O)NCc2ccc(CC(=O)N(C)[C@H](CN3CC[C@H](O)C3)c3ccccc3)cc2)cc1
- pIC50 (Cytochrome P450 2D6): 5.25
- pKi [1]: 7.57

SMILES: CC(C)S(=O)(=O)NCc1ccc(CC(=O)N(C)[C@H](CN2CC[C@H](O)C2)c2ccccc2)cc1
- inhibition at 10 µM (CYP2D6): 27%

SMILES: CN(C(=O)Cc1ccc(CNS(=O)(=O)Cc2cccs2)cc1)[C@H](CN1CC[C@H](O)C1)c1ccccc1
- pIC50 (Cytochrome P450 2D6): 5.32
- pKi (Mu-type opioid receptor [2]): 5.97
- pKi [1]: 7.26

SMILES: CN(C(=O)Cc1ccc(CN)cc1)[C@H](CN1CCCC1)c1ccccc1
- inhibition (Mu-type opioid receptor [3]): 41%
- inhibition [4]: 17%
- pIC50 (Cytochrome P450 2D6): 6.49

SMILES: CN(C(=O)Cc1ccc(Cl)c(Cl)c1)[C@H](CN1CCCC1)c1ccccc1 [ICI-199,441]
- pIC50 (Cytochrome P450 2D6): 7.59

SMILES: CN(C(=O)Cc1ccccc1CNS(C)(=O)=O)[C@H](CN1CCCC1)c1ccccc1
- pIC50 (Cytochrome P450 2D6): 6.53
- pKi (Mu-type opioid receptor [2]): 6.24
- pKi [1]: 6.05

SMILES: CC(=O)NCc1cccc(CC(=O)N(C)[C@H](CN2CCCC2)c2ccccc2)c1
- inhibition (Mu-type opioid receptor [3]): 21%
- inhibition [4]: 15%
- pIC50 (Cytochrome P450 2D6): 6.22

SMILES: CNC(=O)NCc1ccc(CC(=O)N(C)[C@H](CN2CCCC2)c2ccccc2)cc1
- inhibition (Mu-type opioid receptor [3]): 43%
- pIC50 (Cytochrome P450 2D6): 5.91
- pKi [1]: 5.89

SMILES: CN(C(=O)Cc1ccc(CNS(=O)(=O)c2ccc(F)cc2)cc1)[C@H](CN1CC[C@H](O)C1)c1ccccc1
- pIC50 (Cytochrome P450 2D6): 5.24
- pKi (Mu-type opioid receptor [2]): 5.97
- pKi [1]: 7.20

SMILES: CC(=O)NCc1ccccc1CC(=O)N(C)[C@H](CN1CCCC1)c1ccccc1
- pIC50 (Cytochrome P450 2D6): 7.46
- pKi (Mu-type opioid receptor [2]): 5.91
- pKi [1]: 6.05

SMILES: CN(C(=O)Cc1ccccc1)[C@H](CN1CCCC1)c1ccccc1
- pIC50 (Cytochrome P450 2D6): 7.34

SMILES: CN(C(=O)Cc1ccc(CCNS(C)(=O)=O)cc1)[C@H](CN1CC[C@H](O)C1)c1ccccc1
- inhibition at 10 µM (CYP2D6): 48%
- pKi [1]: 6.97

SMILES: CN(C(=O)Cc1ccc(NS(C)(=O)=O)cc1)[C@H](CN1CC[C@H](O)C1)c1ccccc1
- pIC50 (Cytochrome P450 2D6): 5.26
- pKi (Mu-type opioid receptor [2]): 6.98
- pKi [1]: 6.75

SMILES: CN(C(=O)Cc1ccc(CNS(C)(=O)=O)cc1)[C@H](CN1CCCC1)c1ccccc1
- pKi (Mu-type opioid receptor [2]): 6.36
- inhibition at 10 µM (CYP2D6): 45%
- pKi [1]: 5.95

SMILES: CN(C(=O)Cc1ccc2c(c1)CN(S(C)(=O)=O)C2)[C@H](CN1CCCC1)c1ccccc1
- pIC50 (Cytochrome P450 2D6): 5.98
- pKi (Mu-type opioid receptor [2]): 7.13
- pKi [1]: 5.83

SMILES: CN(C(=O)Cc1ccc(CNS(=O)(=O)c2ccccc2)cc1)[C@H](CN1CC[C@H](O)C1)c1ccccc1
- pIC50 (Cytochrome P450 2D6): 5.36

SMILES: CN(C(=O)Cc1ccc(CNS(C)(=O)=O)cc1)[C@H](CN1CC[C@H](O)C1)c1ccccc1
- pKi (Mu-type opioid receptor [2]): 6.82
- inhibition at 10 µM (CYP2D6): 25%
- pKi [1]: 6.78

SMILES: CN(C(=O)Cc1cccc(CNS(C)(=O)=O)c1)[C@H](CN1CCCC1)c1ccccc1
- pIC50 (Cytochrome P450 2D6): 5.74

SMILES: CN(C(=O)Cc1ccccc1CN)[C@H](CN1CCCC1)c1ccccc1
- inhibition (Mu-type opioid receptor [3]): 29%
- pIC50 (Cytochrome P450 2D6): 7.74
- inhibition [5]: 37%

SMILES: CN(C(=O)Cc1cccc(CN)c1)[C@H](CN1CCCC1)c1ccccc1
- inhibition [4]: 1.4%
- pIC50 (Cytochrome P450 2D6): 6.97
- pKi (Mu-type opioid receptor [2]): 5.64

SMILES: CCCCS(=O)(=O)NCc1ccc(CC(=O)N(C)[C@H](CN2CC[C@H](O)C2)c2ccccc2)cc1
- pIC50 (Cytochrome P450 2D6): 5.10
- pKi (Mu-type opioid receptor [2]): 5.98
- pKi [1]: 6.78

SMILES: CCCS(=O)(=O)NCc1ccc(CC(=O)N(C)[C@H](CN2CC[C@H](O)C2)c2ccccc2)cc1
- pKi (Mu-type opioid receptor [2]): 5.98
- inhibition at 10 µM (CYP2D6): 27%
- pKi [1]: 6.91

SMILES: CCS(=O)(=O)NCc1ccc(CC(=O)N(C)[C@H](CN2CC[C@H](O)C2)c2ccccc2)cc1
- pKi (Mu-type opioid receptor [2]): 5.99
- inhibition at 10 µM (CYP2D6): 31%

SMILES: CN(C(=O)Cc1ccc(CNS(=O)(=O)Cc2ccccc2)cc1)[C@H](CN1CC[C@H](O)C1)c1ccccc1
- pIC50 (Cytochrome P450 2D6): 5.24
- pKi [1]: 6.76

SMILES: CC(=O)NCc1ccc(CC(=O)N(C)[C@H](CN2CCCC2)c2ccccc2)cc1
- inhibition (Mu-type opioid receptor [3]): 26%
- inhibition [4]: 0%
- pIC50 (Cytochrome P450 2D6): 5.96
